# Measured values from patent US11045441B2, “Use of retinoic acid and analogs thereof to treat central neural apneas” (Wisconsin Alumni Research Foundation, priority 2015, dated 2021).
# How the values were obtained:
# Format in all cases: in vivo
# [1] = system: apnea and hypopnea events; assay: Chronic intermittent hypoxia (CIH) model, diaphragm EMG recording of apneic and hypoapneic events; details: rats; intraperitoneal 500 mcg/kg daily during 7 day CIH plus day 8 dose; FIG. 5
# Description: Briefly, the experimental and control animals were placed in adjoining, identical chambers that were maintained at room temperature and were large enough to allow unimpeded movement. The fraction of inspired oxygen in each chamber was regulated by microprocessor-controlled miniature solenoids attached to each chamber by high-pressure tubing. For the CIH protocol, the chamber was flushed with 100% nitrogen for 30 sec followed by 30 sec of 100% O2 at a low flow rate. The time course of change in the fraction of inspired oxygen for the experimental chamber was determined using an oxygen analyzer (Sensormedics, Milan, Italy): a decline to a nadir of 6.5 to 7% oxygen, remaining at that level for 5 to 7 sec, and then gradually increasing to 21% over the next 30 sec during which oxygen flowed into the chamber. This cycle was repeated each minute over 8 daytime hours (8 to 9 am to 4 to 5 pm) for 7 days. Control rats were exposed to the same sequence of events as experimental rats, with the exception that room air was used instead of nitrogen and oxygen. […] The experimental animals were administered intra peritoneal trans-retinoic acid (500 mcg/kg) daily throughout the 7 day CIH exposure with an additional dose given the morning of diaphragm electromyography (EMG) recordings (day 8; total of 8 injections) […] and hypoapneic events were recorded via conventional diaphragm EMG measurements.
# [2] = system: phrenic and hypoglossal nerve activity; assay: Protocol 2: central neural apnea model with concurrent hypoxia, rats pretreated with retinoic acid
# Description: Respiratory-related activity was recorded from the left phrenic and hypoglossal nerves in urethane-anesthetized (1.7 g/kg), vagotomized, paralyzed and mechanically ventilated rats (see Strey et al., 2012 for details). Rats are slightly hyperventilated, so a small amount of inspired CO2 was delivered to achieve target, normal PCO2. A pre-study apneic threshold test was performed. The apneic threshold was determined by lowering arterial PCO2 until phrenic respiratory activity ceased. […] Following 15 min of stable phrenic and hypoglossal burst discharge, baseline phrenic and hypoglossal burst amplitudes and blood gases were measured. Rats were then subjected to one of the following protocols:
# Protocol 2) Five (5) brief central neural apneas followed by a 25 sec ventilator apnea (nadir O2 saturation ˜70%) in rats pretreated with vehicle (“control”) or retinoic acid (see below for details). The results are depicted in FIGS. 2A, 2B, and 3.
# Protocol 1 tests the hypothesis that retinoic acid is sufficient to elicit inactivity-induced respiratory motor facilitation. Protocol 2 tests the hypothesis that retinoic acid administration can circumvent hypoxia-induced constraints on inactivity-induced respiratory motor facilitation. Phrenic burst amplitude was recorded for up to 60 min following treatment, and an apneic threshold test was performed at the end of the protocol.
# To model a central neural apnea in anesthetized rats, inflow of CO2 was ceased by stopcock valve to reduce arterial PCO2 below the apneic threshold. Following a 10 second period of no phrenic firing activity (signaling absent breaths) the ventilator was turned off for 25 seconds to model the hypoxia that would normally be experienced in a human. At the end of 25 seconds, the ventilator was turned back on and PaCO2 was restored. This experience was repeated five times, with five minutes separating each episode.
# phrenic nerve activity = assay: Protocol 1: intrathecal retinoic acid injections, phrenic nerve recording in anesthetized rats; details: three 10 μL intrathecal injections, 50 μM each, 60 min after final injection, vs vehicle control, FIGS. 1A, 1B
# Description: Respiratory-related activity was recorded from the left phrenic and hypoglossal nerves in urethane-anesthetized (1.7 g/kg), vagotomized, paralyzed and mechanically ventilated rats (see Strey et al., 2012 for details). Rats are slightly hyperventilated, so a small amount of inspired CO2 was delivered to achieve target, normal PCO2. A pre-study apneic threshold test was performed. The apneic threshold was determined by lowering arterial PCO2 until phrenic respiratory activity ceased. […] Following 15 min of stable phrenic and hypoglossal burst discharge, baseline phrenic and hypoglossal burst amplitudes and blood gases were measured. Rats were then subjected to one of the following protocols: Protocol 1) Three (3) 10 μL intrathecal injections (50 μM each) of retinoic acid or three (3) 10 μL of vehicle (aCSF in 10% DMSO). […] Protocol 1 tests the hypothesis that retinoic acid is sufficient to elicit inactivity-induced respiratory motor facilitation. […] Phrenic burst amplitude was recorded for up to 60 min following treatment, and an apneic threshold test was performed at the end of the protocol.
structure (smiles),measurement,setting,value
"CC1=C(/C=C/C(C)=C/C=C/C(C)=C/C(=O)O)C(C)(C)CCC1 [retinoic acid, all-trans retinoic acid]",number of apnea and hypopnea events (diaphragm EMG),[1],reduces the number of apnea and hypopnea events
same,CO2 apneic threshold,"[2]; anesthetized rats, given before central neural apnea, 60 min post injection, vs control, FIG. 3",reduced the CO2 apneic threshold relative to a control groups
same,phrenic burst amplitude,"[2]; anesthetized rats, intrathecal 10 μL, 50 μM before central neural apneas with hypoxia, 60 min after, FIG. 2A",significantly higher than pre-stimulation levels
same,hypoglossal burst amplitude,"[2]; anesthetized rats, intrathecal 10 μL, 50 μM before central neural apneas with hypoxia, 60 min after, FIG. 2B",significantly higher than pre-stimulation levels
same,enhanced phrenic motor output following inactivity with concurrent hypoxia,"[2]; pretreatment, intermittent inactivity with concurrent hypoxia, FIG. 4C",rescues then enhanced phrenic motor output
same,phrenic nerve activity (phrenic motor output) as a percentage of baseline activity,phrenic nerve activity,persistently increases phrenic motor output
same,phrenic nerve activity (phrenic motor output) as a percentage of baseline activity,phrenic nerve activity; listed as trans-retinoic acid,significantly higher than control group
